This is an account of results in patent US20080115593A1, “Method for Detecting Conformational Change of Calmodulin, a Method for Screening a Substance Having an Activity that Affects to Conformational Change of Calmodulin” (FUENCE CO., LTD., priority 2004, published 2008).

This experiment concerns the target T1, Calmodulin derived from bovine (Bos taurus, UniProt P62157).
T1 construct: purchased Sigma
As to the kind of experiment: Tension and elasticity change of calmodulin film detected by mechanochemical sensor (Example 1). The experiment is classed as binding. As to conditions: FIG. 1; for isotropic tension of the calmodulin film: 10 mM Hepes buffer pH7.4 containing 0.1 M NaCl, flow 0.1 to 0.2 mL/min. The procedure: Calmodulin derived from bovine (Sigma) was dissolved into purified water at a concentration of 2 mg/ml. This solution was sprayed under dry air using an electrospry device described in WO 2002-511792 or an immobilzing device described in Japanese Patent Publication No. 2003-136005. The solution was permeated through a mask with holes of 400 μm in length and 800 μm in width, and then a film was prepared on 1.2% polyvinylpyrrolidone using an electrospray method (the EDS method). The resulting film was placed on an apparatus having a mechanochemical sensor which was described in WO 2002-503332 or U.S. Pat. Publication No. 6,033,913, and it was immersed into 10 mM Hepes buffer solution pH7.4 (hereinafter referred to as “the buffer solution”) containing 0.1 M NaCl. The buffer solution was passed through the film existing on the detecting apparatus at the flow rate of 0.1 to 0.2 mL/min, in order to stabilize the tension of the sample film. Thereafter CaCl2 solution dissolved in said buffer solution was passed through at the same flow rate to detect changes in tension and elasticity (FIG. 1).
A place where the horizontal line (indicating the initial state) uprises means a point where tension is given to the sample film, and compliance is detected where the line oscillates. […] Meanwhile, for example, following review can be refereed to the conformational change of calmodulin, (Vetter S. W. and Leclerc, E. (2003). Novel aspects of calmodulin target recognition and activation. Eur. J. Biochem. 270, 404-414).

With `O=C(O)CN(CCN(CC(=O)O)CC(=O)O)CC(=O)O` [EDTA], the “isotropic tension of the calmodulin film” value was “further decreases”. `[Ca+2].[Cl-].[Cl-]` [CaCl2]: the “isotropic tension of the calmodulin film” value is on record as “remarkably increases”. Under “buffer solution passed after CaCl2”, the “reversibility of the effect on the film when restored by the buffer solution” value was “reversible”.
